In ChEMBL document CHEMBL1201862, “PubChem BioAssay data set” (2004):
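These data come from cells grown in 96-well plates and exposed to compound for 48 hours at five concentrations. Abbreviation: GI50, concentration required for 50% inhibition of growth.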 Active and inactive are the calls of the source. No stated cut-off is given here; in the data, active = GI50 up to about 1.1 µM and inactive = higher.

Legend:
Assay in all cases: inhibition of tumour cell growth, NCI panel, 48 h
MDA-N = tested on: MDA-N
DU-145 = tested on: DU-145
SK-MEL-2 = tested on: SK-MEL-2
IGROV-1 = tested on: IGROV-1
HCC 2998 = tested on: HCC 2998
HCT-15 = tested on: HCT-15
UACC-62 = tested on: UACC-62
SF-539 = tested on: SF-539
SK-MEL-5 = tested on: SK-MEL-5
A549 = tested on: A549
SF-295 = tested on: SF-295
MOLT-4 = tested on: MOLT-4
HOP-92 = tested on: HOP-92
U-251 = tested on: U-251
HOP-62 = tested on: HOP-62
K562 = tested on: K562
COLO 205 = tested on: COLO 205
CCRF-CEM = tested on: CCRF-CEM
MDA-MB-435 = tested on: MDA-MB-435
OVCAR-5 = tested on: OVCAR-5
SNB-19 = tested on: SNB-19
OVCAR-8 = tested on: OVCAR-8
BT-549 = tested on: BT-549
SK-OV-3 = tested on: SK-OV-3
PC-3 = tested on: PC-3
HT-29 = tested on: HT-29
SW-620 = tested on: SW-620
MDA-MB-231 = tested on: MDA-MB-231
Malme-3M = tested on: Malme-3M
ACHN = tested on: ACHN
RXF 393 = tested on: RXF 393
RPMI-8226 = tested on: RPMI-8226
MCF7 = tested on: MCF7
UO-31 = tested on: UO-31
KM12 = tested on: KM12
SF-268 = tested on: SF-268
786-0 = tested on: 786-0
SR = tested on: SR
T47D = tested on: T47D
M14 = tested on: M14
HCT-116 = tested on: HCT-116
SN12C = tested on: SN12C
EKVX = tested on: EKVX
LOX IMVI = tested on: LOX IMVI
HL-60 = tested on: HL-60
SK-MEL-28 = tested on: SK-MEL-28
Hs-578T = tested on: Hs-578T
OVCAR-3 = tested on: OVCAR-3
NCI-H226 = tested on: NCI-H226
TK-10 = tested on: TK-10
OVCAR-4 = tested on: OVCAR-4
NCI-H460 = tested on: NCI-H460
SNB-75 = tested on: SNB-75
NCI-H23 = tested on: NCI-H23
NCI-H522 = tested on: NCI-H522
CAKI-1 = tested on: CAKI-1
A498 = tested on: A498
NCI/ADR-RES = tested on: NCI/ADR-RES
UACC-257 = tested on: UACC-257

SMILES: O=C(O)c1ccccc1/C=N\N(CCO)C1=NCCN1
- GI50 (MDA-N): > 100 µM (inactive)
- GI50 (DU-145): > 100 µM (inactive)
- GI50 (SK-MEL-2): > 100 µM (inactive)
- GI50 (IGROV-1): > 100 µM (inactive)
- GI50 (HCC 2998): > 100 µM (inactive)
- GI50 (HCT-15): > 100 µM
- GI50 (UACC-62): > 100 µM (inactive)
- GI50 (SF-539): > 100 µM (inactive)
- GI50 (SK-MEL-5): > 100 µM (inactive)
- GI50 (A549): > 100 µM (inactive)
- GI50 (SF-295): > 100 µM (inactive)
- GI50 (MOLT-4): > 100 µM (inactive)
- GI50 (HOP-92): > 100 µM (inactive)
- GI50 (U-251): > 100 µM (inactive)
- GI50 (HOP-62): > 100 µM (inactive)
- GI50 (K562): > 100 µM (inactive)
- GI50 (COLO 205): > 100 µM (inactive)
- GI50 (CCRF-CEM): > 100 µM (inactive)
- GI50 (MDA-MB-435): > 100 µM (inactive)
- GI50 (OVCAR-5): > 100 µM (inactive)
- GI50 (SNB-19): > 100 µM (inactive)
- GI50 (OVCAR-8): > 100 µM (inactive)
- GI50 (BT-549): > 100 µM (inactive)
- GI50 (SK-OV-3): > 100 µM (inactive)
- GI50 (PC-3): > 100 µM (inactive)
- GI50 (HT-29): > 100 µM (inactive)
- GI50 (SW-620): > 100 µM (inactive)
- GI50 (MDA-MB-231): > 100 µM (inactive)
- GI50 (Malme-3M): > 100 µM (inactive)
- GI50 (ACHN): > 100 µM (inactive)
- GI50 (RXF 393): > 100 µM (inactive)
- GI50 (RPMI-8226): > 100 µM (inactive)
- GI50 (MCF7): > 100 µM (inactive)
- GI50 (UO-31): > 100 µM (inactive)
- GI50 (KM12): > 100 µM (inactive)
- GI50 (SF-268): > 100 µM (inactive)
- GI50 (786-0): > 100 µM (inactive)
- GI50 (SR): > 100 µM (inactive)
- GI50 (T47D): > 100 µM (inactive)
- GI50 (M14): > 100 µM (inactive)
- GI50 (HCT-116): > 100 µM (inactive)
- GI50 (SN12C): > 100 µM (inactive)
- GI50 (EKVX): > 100 µM (inactive)
- GI50 (LOX IMVI): > 100 µM (inactive)
- GI50 (HL-60): > 100 µM (inactive)
- GI50 (SK-MEL-28): > 100 µM (inactive)
- GI50 (Hs-578T): > 100 µM (inactive)
- GI50 (OVCAR-3): > 100 µM (inactive)
- GI50 (NCI-H226): > 100 µM (inactive)
- GI50 (TK-10): > 100 µM (inactive)
- GI50 (OVCAR-4): > 100 µM (inactive)
- GI50 (NCI-H460): > 100 µM (inactive)
- GI50 (SNB-75): 93.1 µM (inactive)
- GI50 (NCI-H23): > 100 µM (inactive)

SMILES: CCC(=O)Nc1ccc(NCC(=O)Nc2ccc(OC)cc2)cc1
- GI50 (MDA-N): 29.8 µM (inactive)
- GI50 (DU-145): 31.8 µM (inactive)
- GI50 (SK-MEL-2): 18.4 µM (inactive)
- GI50 (IGROV-1): 25.8 µM (inactive)
- GI50 (HCC 2998): 6.76 µM (inactive)
- GI50 (HCT-15): 32.8 µM
- GI50 (UACC-62): 19.1 µM (inactive)
- GI50 (SF-539): 17.5 µM (inactive)
- GI50 (SK-MEL-5): 17.5 µM (inactive)
- GI50 (A549): 54 µM (inactive)
- GI50 (SF-295): 46.7 µM (inactive)
- GI50 (MOLT-4): 39 µM (inactive)
- GI50 (HOP-92): 23.8 µM (inactive)
- GI50 (HOP-62): 2.99 µM (inactive)
- GI50 (K562): 35.6 µM (inactive)
- GI50 (COLO 205): 31.8 µM (inactive)
- GI50 (CCRF-CEM): 25.4 µM (inactive)
- GI50 (MDA-MB-435): 30.5 µM (inactive)
- GI50 (NCI-H522): 15.2 µM (inactive)
- GI50 (OVCAR-5): 17.4 µM (inactive)
- GI50 (SNB-19): 13.2 µM (inactive)
- GI50 (OVCAR-8): 19.7 µM (inactive)
- GI50 (CAKI-1): 13.5 µM (inactive)
- GI50 (BT-549): 23.2 µM (inactive)
- GI50 (SK-OV-3): 8.67 µM (inactive)
- GI50 (PC-3): 26.2 µM (inactive)
- GI50 (HT-29): 20.9 µM (inactive)
- GI50 (SW-620): 35.2 µM (inactive)
- GI50 (Malme-3M): 21.6 µM (inactive)
- GI50 (ACHN): 40.5 µM (inactive)
- GI50 (RXF 393): 16.4 µM (inactive)
- GI50 (RPMI-8226): 32.9 µM (inactive)
- GI50 (MCF7): 17.1 µM (inactive)
- GI50 (UO-31): 45.5 µM (inactive)
- GI50 (KM12): 17.4 µM (inactive)
- GI50 (A498): 27.7 µM (inactive)
- GI50 (SF-268): 17.7 µM (inactive)
- GI50 (786-0): 20.3 µM (inactive)
- GI50 (SR): 31.8 µM (inactive)
- GI50 (NCI/ADR-RES): 28.1 µM (inactive)
- GI50 (T47D): 21.1 µM (inactive)
- GI50 (M14): 49.3 µM (inactive)
- GI50 (HCT-116): 26.1 µM (inactive)
- GI50 (SN12C): 18.1 µM (inactive)
- GI50 (EKVX): 16.7 µM (inactive)
- GI50 (LOX IMVI): 16.6 µM (inactive)
- GI50 (HL-60): 28.2 µM (inactive)
- GI50 (SK-MEL-28): 49.1 µM (inactive)
- GI50 (Hs-578T): 30.3 µM (inactive)
- GI50 (OVCAR-3): 25.2 µM (inactive)
- GI50 (NCI-H226): 12.4 µM (inactive)
- GI50 (OVCAR-4): 13.2 µM (inactive)
- GI50 (UACC-257): 7.8 µM (inactive)
- GI50 (SNB-75): 13.7 µM (inactive)
- GI50 (NCI-H23): 19.9 µM (inactive)
